From patent US20240018158A1, “BRM TARGETING COMPOUNDS AND ASSOCIATED METHODS OF USE” (Prelude Therapeutics Incorporated, priority 2020, published 2024) come the findings set out here.

One experiment concerns the target SMARCA4 (Homo sapiens (Human), UniProt P51532). Kind of experiment: In Cell Western SMARCA4 degradation in NCIH520 cells. The note with it: for DC50: read-out: DC50 (SM4_H520) SMARCA4 degradation potency. The class given is cell-based. The method, then:
Compound titration and cell culture: Compounds were dissolved in DMSO to make 10 mM stock and 3-fold series dilutions were further conducted keeping the highest concentration 10 μM. NCIH1693 and NCIH520 cells were maintained in PRMI 1640 medium (Corning Cellgro, Catalog #:10-040-CV) supplemented with 10% v/v FBS (GE Healthcare, Catalog #: SH30910.03) by splitting 1:3 twice a week.
To determine SMACRA2 and SMARCA4 protein degradation DC50 values in NCIH1693 and NCIH520 cells by In Cell Western (ICW) analysis. Cells were trypsinized and 30 thousand cells/well were seeded into 384-well plates and were allowed to grow for 5 hours at 37° C. Eight-point, 3-fold serial dilutions of compounds from 10 mM stocks were added to the cells (using digital Dispenser D300-Tecan, keeping highest concentration 10 μM and normalizing with DMSO at the highest dispensed volume). Plates were incubated at 37° C. for overnight (maximum 18 hours). Cells incubated with DMSO was used as a vehicle control.
To perform In Cell Western, medium was removed from all the wells leaving cells attached to the surface. After removing the medium, cells were fixed within the plates with 40 μL of 4% formaldehyde by incubating at room temperature for 30 minutes, and then permeabilized with wash buffer (1×PBS with 0.1% Triton X-100) by washing the plate 5 times with 50 μL/well. Before labeling with primary antibodies, cells were blocked with 30 μL/well of blocking buffer (Licor Odyssey blocking buffer PBS #927-40000) for 30 minutes at room temperature. To measure SMARCA2 or SMARCA4 proteins, cells were labeled with 20 μL/well of anti SMARCA2 or SMACRA4 antibodies (Cell Signaling BRM #11966S 1:1000, Cell Signaling BRG #49360S 1:1000) diluted in Li-Cor Odyssey blocking buffer-PBS #927-40000, followed by overnight incubation at 4° C.
The next day, plates were washed 5×5 minutes with 50 μL/well of washing buffer to remove all the excess primary antibody and then 20 μL from a mixture of secondary antibody and fluorescent DNA specific dye (Goat anti rabbit 1:500 IRDye-800CW #92632211, and DRAQ5™ 1:2000-#ab108410) was added to each well. Plates were incubated for 1 hour at room temperature with gentle rocking. Cells were washed 5 times with 50 μL/well wash buffer, followed by one last wash with DI water, followed by 10 mins drying at 37° C. oven before scanning. Plates were scanned using Li-Cor Odyssey CLx imaging system to acquire integrated intensities at 700 nm and 800 nm. SMARCA signals were normalized to total cell count and then these normalized values were used to calculate the percent degradation relative to DMSO control and maximum inhibition. DC50s were calculated by using the GraphPad Prism4 program based on sigmoidal dose response equation ([Inhibitor] vs. normalized response−Variable slope).

Experiment [1] addresses bromo domain of SMARCA4 protein (Homo sapiens (Human), UniProt P40337+P51532). Kind of experiment: SMARCA4 bromodomain ternary binding TR-FRET assay (with VCB). The note with it: with saturating VCB (5 μM); read-out: IC50 (SM4_T) ternary binding potency in SMARCA4 FRET assay. The protocol:
Recombinant bromo domain of SMARCA4 protein, was purchased from Active Motif (31401). The inhibitory activity of compounds was evaluated in vitro using TR-FRET assay with white 384-well low volume microplate (PerkinElmer ProxiPlate Plus), in which the compound competes the same binding site with the ligand, and thus lead to dose-dependent TR-FRET signal reduction. The cooperativity of the compounds for ternary complex formation with E3 ligase was evaluated in the absence or presence of saturating concentrations of VCB. Testing compounds were dissolved in DMSO at 10 mM and tested in 9-point IC50 mode. The assay mixture was prepared by mixing SMARCA4 (20 nM final), biotinylated probe (25 nM final), and assay buffer or VCB (5 μM) in 1×AlphaLISA Epigenetics Buffer (PerkinElmer AL008F) with 1 mM TCEP. The compounds of interest in DMSO were added to each well in 3-fold serial dilution by dispenser (TECAN D300E). and incubate for 20 minutes at room temperature before addition of detection reagents, Lance Eu W1024 anti-6×His (0.6 nM final, PerkinElmer AD0110) and Streptavidin Surelight APC (6 nM final, PerkinElmer CR130-100). The plate was then sealed and further incubated at 4° C. overnight in dark, and then was read by Envision multimode plate reader (PerkinElmer, 2102-0010). The ratio of florescence signal at 665/620 was used in data analysis. Percentage inhibition was calculated by % inhibition=100×(FDMSO-F)/(FDMSO-FPC), in which FDMSO is DMSO control, and FPC is positive control. IC50 values were determined from dose response curve by fitting the percent inhibition against compound concentration using GraphPad Prism software.
For orientation: In TR-FRET formats the signal depends on donor and acceptor labels being close together.

Chain of SMARCA4 (P51532 whole entry): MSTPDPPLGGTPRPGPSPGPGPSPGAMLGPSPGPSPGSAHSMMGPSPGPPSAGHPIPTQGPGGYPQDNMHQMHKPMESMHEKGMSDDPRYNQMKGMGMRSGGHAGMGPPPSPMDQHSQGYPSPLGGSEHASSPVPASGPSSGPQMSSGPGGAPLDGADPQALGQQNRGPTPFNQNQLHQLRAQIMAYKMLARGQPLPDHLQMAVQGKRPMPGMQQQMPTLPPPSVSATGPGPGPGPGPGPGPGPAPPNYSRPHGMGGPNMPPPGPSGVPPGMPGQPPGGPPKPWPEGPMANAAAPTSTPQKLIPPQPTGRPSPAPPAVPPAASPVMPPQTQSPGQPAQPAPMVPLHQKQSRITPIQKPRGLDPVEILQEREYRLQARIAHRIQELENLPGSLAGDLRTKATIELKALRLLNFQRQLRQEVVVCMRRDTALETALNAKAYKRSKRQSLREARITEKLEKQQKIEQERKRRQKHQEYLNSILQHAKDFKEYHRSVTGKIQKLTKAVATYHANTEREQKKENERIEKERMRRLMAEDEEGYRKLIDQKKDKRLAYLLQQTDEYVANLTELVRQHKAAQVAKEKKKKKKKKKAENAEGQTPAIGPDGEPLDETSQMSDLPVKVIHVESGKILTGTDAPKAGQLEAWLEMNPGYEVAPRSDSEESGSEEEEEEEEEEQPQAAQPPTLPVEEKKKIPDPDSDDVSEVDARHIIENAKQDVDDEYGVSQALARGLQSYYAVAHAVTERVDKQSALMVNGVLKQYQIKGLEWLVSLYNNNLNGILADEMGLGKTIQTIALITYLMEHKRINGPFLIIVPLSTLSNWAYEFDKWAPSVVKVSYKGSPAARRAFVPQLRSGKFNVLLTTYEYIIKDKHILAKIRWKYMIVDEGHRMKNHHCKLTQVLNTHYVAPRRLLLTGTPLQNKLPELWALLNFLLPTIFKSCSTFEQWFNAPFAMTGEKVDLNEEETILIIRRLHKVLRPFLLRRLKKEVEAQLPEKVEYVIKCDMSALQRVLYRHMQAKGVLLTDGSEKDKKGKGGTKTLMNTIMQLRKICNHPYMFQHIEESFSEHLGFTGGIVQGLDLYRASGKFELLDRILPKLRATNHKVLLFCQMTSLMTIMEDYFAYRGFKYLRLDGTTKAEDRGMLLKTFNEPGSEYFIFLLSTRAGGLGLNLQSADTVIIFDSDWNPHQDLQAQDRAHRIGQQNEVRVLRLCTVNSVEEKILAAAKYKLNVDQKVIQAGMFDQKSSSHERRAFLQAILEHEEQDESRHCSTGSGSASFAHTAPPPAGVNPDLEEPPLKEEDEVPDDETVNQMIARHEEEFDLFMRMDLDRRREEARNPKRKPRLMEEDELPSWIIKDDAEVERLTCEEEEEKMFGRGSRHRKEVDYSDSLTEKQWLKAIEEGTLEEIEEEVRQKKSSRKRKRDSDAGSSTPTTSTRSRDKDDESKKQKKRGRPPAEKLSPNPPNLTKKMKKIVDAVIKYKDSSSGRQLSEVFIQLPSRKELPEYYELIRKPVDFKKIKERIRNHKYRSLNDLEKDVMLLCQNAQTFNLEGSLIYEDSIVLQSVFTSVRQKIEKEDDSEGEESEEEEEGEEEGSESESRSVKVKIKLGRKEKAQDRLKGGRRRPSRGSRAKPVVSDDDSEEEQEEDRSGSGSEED
Chain of bromo domain of SMARCA4 protein (P51532 whole entry, looked up, the tested form may be a part): as the sequence (P51532 whole entry) above
Chain of bromo domain of SMARCA4 protein (P40337 whole entry, looked up, the tested form may be a part): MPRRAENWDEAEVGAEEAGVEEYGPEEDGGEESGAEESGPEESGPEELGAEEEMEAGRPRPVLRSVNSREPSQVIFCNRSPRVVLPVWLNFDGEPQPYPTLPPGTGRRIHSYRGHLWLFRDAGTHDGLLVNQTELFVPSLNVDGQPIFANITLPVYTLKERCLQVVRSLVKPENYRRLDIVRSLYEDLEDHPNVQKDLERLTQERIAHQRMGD
Chain of bromo domain of SMARCA4 protein (Q15370 whole entry partner, looked up, the tested form may be a part): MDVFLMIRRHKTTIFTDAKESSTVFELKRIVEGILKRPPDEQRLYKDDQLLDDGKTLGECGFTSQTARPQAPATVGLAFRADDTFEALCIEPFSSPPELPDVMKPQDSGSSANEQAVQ
Chain of bromo domain of SMARCA4 protein (Q15369 whole entry partner, looked up, the tested form may be a part): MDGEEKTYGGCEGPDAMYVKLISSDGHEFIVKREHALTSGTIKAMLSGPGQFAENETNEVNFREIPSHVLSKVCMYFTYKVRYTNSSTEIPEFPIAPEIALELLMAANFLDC

In the case of `Cc1ncsc1-c1ccc([C@H](C)NC(=O)[C@@H]2C[C@@H](O)CN2C(=O)[C@@H](NC(=O)CN2CCN3c4cc(-c5ccccc5O)nnc4NCC3C2)C(C)(C)C)cc1` (single isomer, unassigned) [Example 1b], the DC50 on SMARCA4 (H520 cells, overnight) was 100 to 1000 nM. Further, in experiment [1], the IC50 was less than 100 nM.
With `Cc1scnc1-c1ccc(CNC(=O)[C@@H]2C[C@@H](O)CN2C(=O)[C@@H](NC(=O)CN2CCN3c4cc(-c5ccccc5O)nnc4NCC3C2)C(C)(C)C)cc1` (single isomer, unassigned) [Example 2a], the DC50 at SMARCA4 (H520 cells, overnight) was in the range of 1000 to 10000 nM. Moreover, the Dmax at SMARCA4 (NCI-H520, overnight, read-out: Dmax % (SM4_H520) maximum SMARCA4 degradation within the concentrations tested) lay within 50 to 75%. For the same compound, the IC50 in experiment [1] fell in the range of 100 to 1000 nM.
Turning to `Cc1scnc1-c1ccc(CNC(=O)[C@@H]2C[C@@H](O)CN2C(=O)[C@@H](NC(=O)CN2CCN3c4cc(-c5ccccc5O)nnc4NCC3C2)C(C)(C)C)cc1` (single isomer, unassigned) [Example 2b], at SMARCA4 (H520 cells, overnight), the “Dmax % (SM4_H520) maximum SMARCA4 degradation within the concentrations tested” value is on record as “C (C = Dmax <= 50%)” and the DC50 is not below 10000 nM. Also, in experiment [1], the IC50 was less than 100 nM.

The DC50 is the concentration giving 50% degradation. A word on the IC50: it is the concentration that inhibits the measured activity by half.
